Non-standard residues stand in square brackets, D forms with d. Residues, ends and D or L forms follow the SMILES beside them. αMeP = C[C@@]1(C(=O)O)CCCN1
Columns and labels:
[1] = system: MeCP2 deficient mice; assay: Seizure activity, electroencephalographic recordings; details: mouse, in vivo
Excerpt: Because seizures are a prominent, hazardous and a difficult to treat aspect of Rett Syndrome, we determine the effects of G-2MePE on seizure activity in MeCP2 deficient animals. G-2-MePE can be effective in treating seizure activity in animals with neurodegenerative disease (U.S. Pat. No. 7,714,020). Therefore, we carry out experiments to determine whether G-2-MePE can also treat seizure activity in MeCP2 deficient mice. Electroencephalograpic recordings of wild-type mice and MeCP2 deficient mice treated with either saline or G-2-MePE are obtained using methods described in U.S. Pat. No. 7,714,020.

[2] = system: hippocampal slices of heterozygous Shank3-deficient mice; assay: Shank3-deficient mouse model, hippocampal slice electrophysiology; format: in vivo; details: 15 or 60 mg/kg oral b.i.d. for 14 days
Protocol: 1 to 3 month old wild type and heterozygous Shank3-deficient mice are divided into 4 treatment groups: placebo treated wild-type, placebo treated Shank3-deficient group and two Shank3-deficient G-2-MePE treated groups. The animals are given placebo (water) or G-2-MePE formulated in water administered orally, b.i.d for 14 days. G-2-MePE is administered at two doses: 15 or 60 mg/kg.
Post-mortem, acute hippocampal slices (350 μm) are prepared from mice using a tissue chopper. Slices are maintained and experiments are conducted at 32° C. Slices are perfused with Ringer's solution containing (in mM): NaCl, 125.0; KCl, 2.5; MgSO4, 1.3; NaH2PO4, 1.0; NaHCO3, 26.2; CaCl2, 2.5; glucose, 11.0. The Ringer's solution is bubbled with 95% O2/5% CO2, at 32° C., during extracellular recordings (electrode solution: 3 M NaCl). Slices are maintained for 1 hr prior to establishment of a baseline of field excitatory postsynaptic potentials (fEPSPs) recorded from stratum radiatum in area CA1, evoked by stimulation of the Schaffer collateral-commissural afferents (100 μs pulses every 30 s) with bipolar tungsten electrodes placed into area CA3. Test stimulus intensity is adjusted to obtain fEPSPs with amplitudes that are one-half of the maximal response. The EPSP initial slope (mV/ms) is determined from the average waveform of four consecutive responses. Input-output (I/O) curves are generated by plotting the fEPSP slope versus fiber volley amplitude in low-Mg^2+ (0.1 mM) solution. AMPA receptor-mediated and NMDA receptor-mediated I/O relationships are measured in the presence of ionotropic glutamate receptor antagonists: […] APV (50 μM) and 6-cyano-7-nitroquinoxaline-2,3-dione CNQX (100 μM). Paired-pulse responses are measured with interstimulus intervals of 10 to 200 ms, and are expressed as the ratio of the average responses to the second stimulation pulse to the first stimulation pulse. […]

[3] = system: subjects with Rett Syndrome; assay: Placebo controlled study in subjects with Rett Syndrome; format: in vivo, human
Excerpt: Thirty subjects with Rett Syndrome are recruited, Subjects are female and aged between […] (Mean=12.1 SD=4.4). All subjects have an IQ<60 and mutations of the MECP2 gene. Subjects also show ether spike activity in the EEG or an increase in lower frequency bands of the BEG as detected by Fast Fourier Transform (FFT). Subjects are instructed that concomitant medications are to be stable for at least six weeks prior to study. Subjects receiving medication to treat signs of inattention are tested in the morning and instructed to take their medication in the afternoon. Subjects with QTc interval >451 msec are excluded.
The study is a randomized double blind placebo controlled parallel study with three doses of either placebo, 10 mg/kg T.I.D oral G-2-MePE for five days, or 30 mg/kg T.I.D. oral G-2-MePE.
Subjects are tested at baseline using the following instruments: The Rett Syndrome Natural History/Clinical Severity Scale, Aberrant Behavior Checklist Community Edition (ABC), Vinelands, Clinical Global Impression of Severity (CGI-S) and their carers completed the Caregiver Strain Questionnaire (CSQ).
Subjects are brought into clinic on an inpatient basis to enable initial baseline recordings of EEG, ECG and respiratory rate continuously for 24 hours using polysomnography technology. Hand movements are also recorded using the Q-Sensor™. Derived EEG measures include: spikes per unit time in the EEG, overall power of frequency bands of the EEG, QTc and heart rate variability (HRV), and respiratory irregularities.
Adverse events are also recorded using standard safety measures and the SMURF elicitation of adverse events
Statistically, the effect of treatment with G-2-MePE is analysed by conducting a repeated analysis of covariance (ANCOVA) on the effect of treatment on change from baseline scores.

[4] = system: MeCP2-/y mice; assay: Heart rate measurements; format: in vivo, mouse; details: 8 weeks old, treated from P15
Protocol: Real time cardiac pulse rate is measured using a tail clip sensor (Mouse OX Oximeter—Oakmont, Pa.). Mice are not anesthetized but physically restrained in a fitted open plastic tube. Prior to the recording session the tube is placed overnight in the cages housing the experimental animals to allow habituation. Body temperature is maintained at ˜82-84° F. throughout the recording time. We record 3 trials of 15 minutes for each mouse, mice are 8 weeks old and treated with vehicle or G-2-MePE from P15.
To examine heart rate abnormalities in MeCP2−/y mice and the effect of G-2-MePE treatment, we monitor real time cardiac pulse rate in non-anesthetized wild type and MeCP2−/y animals treated with vehicle or G-2-MePE.

[5] = system: animals with penetrating ballistic injury; details: pTBI; cited from earlier work
[6] = vs placebo treated Shank3-deficient group
[7] = 30 mg/kg T.I.D. oral, compared to placebo

With `C[C@@]1(C(=O)N[C@@H](CCC(=O)O)C(=O)O)CCCN1C(=O)CN` [Example G-2-MePE, Glycyl-L-2-methylprolyl-L-glutamic acid] (H-Gly-[αMeP]-Glu-OH) the motor seizures [1] was “effective in decreasing”, the non-convulsive seizures [1] was “effective in decreasing” and the “AMPA receptor-mediated field potentials” value [2] was “normalizes”. The “average slope of I/O function” value [2, 6] was “increase”, the “hippocampal long-term potentiation (LTP) and its maintenance” value [2, 6] was “increased” and the “power of the delta band of the EEG” value [3, 7] was “decreases”. The spike activity [3, 7] was “decreases”, the “subscales Nonverbal Communication, Epilepsy/Seizures, Hand use” value [3, 7] was “significant effects” and the “Serious Adverse Events” value ([3]; 10 or 30 mg/kg T.I.D. oral) was “No Serious Adverse Events”. For the same molecule, the heart rate variability ([3]; 10 or 30 mg/kg T.I.D. oral) was “No effects”, the “increases in QTC” value ([3]; 10 or 30 mg/kg T.I.D. oral) was “No instances of increases” and the respiratory rate ([3]; 10 or 30 mg/kg T.I.D. oral) was “No effects”. For the same molecule, the adverse events ([3]; 10 or 30 mg/kg T.I.D. oral, vs placebo) was “no more adverse events than are present during treatment with placebo”, the tolerability ([3]; Rett Syndrome population) was “well tolerated” and the “Rett Syndrome Natural History/Clinical Severity Score” value ([3]; overall) was “no significant effect overall”. For the same molecule, the “spikes per unit time in the EEG” value ([3]; overall treatment effect) was “significant overall reduction”, the “total hand movements per twenty-four hour period (Q-Sensor)” value ([3]; significant for the 30 mg/kg T.I.D. dose compared to placebo) was “reduces” and the “occurrence of irregular heart rate with a lower average rate” value [4] was “significantly reduced”. The neuroinflammation [5] was “inhibits”.
